Numbers after ± are expanded uncertainties.

The nature of series [1]: Molar enthalpy of transition or fusion. Particulars: Crystal; DSC.
The conditions of series [2]: Crystal; DTA.

Regarding `CCOc1nc2cccc(C(=O)OC(C)OC(=O)OC3CCCCC3)c2n1Cc1ccc(-c2ccccc2)c(-c2nnn[nH]2)c1` (configuration not stated), the “Molar enthalpy of transition or fusion” value in series [1] is 6.63 ± 0.189 kcal/mol. In addition, the Normal melting temperature in series [2] worked out at 169 ± 1 °C.
